# Data from patent US20130101632A1, “NANOPARTICULATE FORMULATIONS OF MITHRAMYCIN OR MITHRAMYCIN ANALOGUES FOR TREATING CANCER” (UNIVERSITY OF KENTUCKY RESEARCH FOUNDATION, priority 2011, published 2013).
# Legend:
# HT29 colon cancer cells = test: In vivo subcutaneous tumor model; settings: 2 mg/kg, 100 μL injection, after 18 days, HT29 subcutaneous tumors in nude mice
# Experimental: Subcutaneous tumor models were established with HT29 colon cancer cells. Nude/nude mice at 8 weeks old were injected with 3×10^6 HT29 cells subcutaneously in the right flank. The tumors were then allowed to grow to a volume of ˜130 mm^3. Once the tumors reached a volume of 130 mm^3 the mice were injected with 100 μL of the desired treatment. For the control group the mice were injected with PBS. For the SK free drug and SK CNA groups the final treatment dose was 7 mg/kg and an injection volume of 100 μL. For SDK free drug and SDK CNA the final treatment dose was 2 mg/kg with an injection volume of 100 μL. Once the mice were treated the tumor volume and body mass were measured for 18 days. The groups were formed with an N=6 mice. The tumor volume was calculated by the formula 0.5(l)×w2.
# A549 cells = test: Cell toxicity assay in A549 cells (resazurin); type: cell-based, human
# Experimental: The cytotoxic effects of four MTM analogue nanoparticulate formulations were investigated in comparison to free drugs. A549 cells were cultured as specified from ATCC at 37° C., 5% CO2. The cells were seeded on a 96 well plate (5,000 cells/well) and allowed to adhere for 24 hrs. After 24 hrs growth media were replaced with fresh media containing samples at differing concentrations. 1% DMSO (biotechnological grade) was used as a control vehicle to prepare free drug formulations for SK and SDK. Self-assembled and cross-linked micelles were used as nanoparticulate formulations for SK and SDK. The cells were exposed to samples for 72 hrs total (n=8). Cell viability was assessed using a resazurin assay that indicates mitochondrial metabolic activity in live cells. 10 μL of a 1 mM resazurin solution in PBS was added to the vehicle- and drug-treated cells at the end of the treatment period. Cell viability was determined three hours later by reading the fluorescence at 560 nm (Ex)/590 nm (Em). The fluorescence signals were quantified using a Spectramax M5 plate reader (Molecular Devices) equipped with a SoftMaxPro software. Cytotoxicity was determined by calculating the half maximal inhibitory concentration (IC50) of each sample.
# HT29 cells = test: Cell toxicity assay in HT29 cells (resazurin); type: cell-based; settings: 72 hrs exposure
# Experimental: The in vitro cytotoxic effects of the MTM loaded CNAs (Crosslinked Nano Assemblies) were investigated in comparison to free drugs. HT29 cells were cultured as specified from ATCC at 37° C., 5% CO2. The cells were seeded on a 96 well plate (5,000 cells/well) and allowed to adhere for 24 hrs. After 24 hrs growth media were replaced with fresh media containing drug and CNA samples at differing concentrations. Free drug formulations for SK and SDK and CNA formulations were prepared in filtered DI water. The cells were exposed to samples for 72 hrs total (n=4). Cell viability was assessed using a resazurin assay that indicates mitochondrial metabolic activity in live cells. 10 μL of a 1 mM resazurin (7-Hydroxy-3H-phenoxazin-3-one 10-oxide) solution in PBS was added to the vehicle- and drug-treated cells at the end of the treatment period. Cell viability was determined three hours later by reading the fluorescence at 560 nm (Ex)/590 nm (Em). The fluorescence signals were quantified using a Spectramax® M5 plate reader (Molecular Devices) equipped with a SoftMaxPro® software. Cytotoxicity was determined by calculating the half maximal inhibitory concentration (IC50) of each sample.
structure (smiles),measurement,setting,value
CO[C@H](C(=O)C(C)=O)[C@@H]1Cc2cc3cc(OC4C[C@@H](OC5C[C@@H](O)[C@H](O)C(C)O5)[C@H](O)C(C)O4)c(C)c(O)c3c(O)c2C(=O)[C@H]1OC1C[C@@H](OC2C[C@@H](OC3C[C@](C)(O)[C@H](O)C(C)O3)[C@@H](O)C(C)O2)[C@H](O)C(C)O1 (stereo partly shown) [SDK],relative tumor regression as compared to the control,HT29 colon cancer cells,48%
same,IC50,"A549 cells; 72 hrs exposure, resazurin assay",93 ± 35 nM
same,Relative efficacy to free drug,A549 cells; relative to free drug = 1.00,1.00
same,IC50,HT29 cells,216 ± 4 nM
